Experimental data: patent publication US9701680B2, “Pyrimidine and pyridine compounds and their usage” (HUTCHISON MEDIPHARMA LIMITED, priority 2013, dated 2017)
Like-named read-outs stand apart in the source and are kept apart here.

Tests used:
SNU-16 = experiment: Cellular Proliferation Assay (Cell Counting Kit-8), SNU-16; format: cell-based; settings: Homo sapiens; SNU-16 cells, 72 hours
Method: (§1) Example 26: Cellular Proliferation Assay
(§2) • 1. Cell Line • KG-1 (ATCC Accession No. CCL-246), • SNU-16 (ATCC Accession No. CRL-5974), • RT-112 (ECACC Accession No. 85061106) • 2. Assay Protocol • FGFR related cancer cell proliferation is measured in 96-well plates using Cell Counting Kit-8 (Dojindo CK04-13). • Seed 30000 cells/well of KG1, 5000 cells/well of SNU16, and 1000 cells/well of RT112 in a volume of 100 μL/well in growth media. • After 24 hours, dilute the test compound to 10, 3.3, 1.1, 0.37, 0.12, 0.04, 0.013, 0.004 μM, keeping the DMSO concentration at 5%. • Add 10 μL of 8-point compound series to the wells of culturing cells. • Incubate at 37° C. and 5% CO2 for 72 hours • Add 10 μL/well of CCkit8 and incubate at 37° C. and 5% CO2 for an hour • Detect the optical density of each well at 450 nm on Labsystems Multiskan K3. • 3. Data Analysis
(§3) [formula] Note: • ODcompound well represents the optical density of cells treated with compound. • ODcell well represents the optical density of cells without compounds treatment.(only 0.5% DMSO) • ODcontrol well represents the optical density of culture media background • IC50: determined with add-in software for Microsoft Excel, XLfit™ (version 2.0) from ID Business Solutions (Guildford, UK).

Recombinant human FGFR2 = Recombinant human FGFR2 (Homo sapiens, UniProt P21802); experiment: Transcreener Kinase Assay of FGFR2; format: biochemical
Method: Example 24: Transcreener Kinase Assay of FGFR2
• 1. […] Prepare Solution • Test compounds were solved in DMSO and were diluted with assay buffer to 5 folds of final concentration keeping the DMSO concentration at 5%. Further dilution are needed to make final concentrations are at 1, 0.33, 0.11, 0.037, 0.012, 0.004, 0.0014, 0.0005 μM; (the final concentration of DMSO is 1%). • Enzyme/Substrate stock Preparation: Recombinant human FGFR2 and Poly E4Y are both diluted in assay buffer. The final concentration is 0.3 ng/μL for FGFR2 and 62.5 ng/μL for Poly E4Y. The mixture is being kept in ice before use; • Prepare ATP Diluents, 10 mM ATP is diluted in assay buffer, the final concentration is 25 μM; • Prepare ADP Diluents: diluted ADP (500 μM) in assay buffer, the final concentration is 25 μM; • Prepare ATP standard curve stock as following:
• 3. Enzymatic Reaction • In a 96-well plate, add 5 μL of deluted solution of test compound or control solution. (positive control: 5 μL of 5% DMSO; negative control: 5 μL of 500 mM EDTA) into desired wells respectively; • Add 10 μL of Enzyme/Substrate stock into each well; • Add 10 μL of ATP Diluents to initiate the enzyme reaction and vortex the plate immediately on a plate shaker; • For the wells to make standard curve, add 5 μL of 5% DMSO, 10 μL of assay buffer and 10 μL of ATP standard curve stock. • Incubate the plate for 45 min at 28° C. on a plate shaker in a low speed. • 4. Stoping Reaction and Detecting ADP • Detection Mix Preparation: The mixture is made by dilution with MilliQ water; as following: ADP Alexa633 tracer (1:100), ADP antibody (1:158), and stop & detect buffer (1:10); • Tracer Only control Preparation: The mixture is made by dilution with MilliQ water; as following: ADP Alexa633 tracer (1:100), and stop & detect buffer (1: 10) • No Tracer control Preparation: stop & detect buffer is diluted with MilliQ water; by 10 fold. • Add 25 μL of detection mix, Tracer Only control and No Tracer control into corresponding wells, respectively; • Incubate at 28° C. for 1 h, on a plate shaker in a low speed; • Measure florescence polarization (mP) on TECAN F500. Excitation wavelength: 610 nm, Emission wavelength: 670 nm. • 5. Data Analysis
(§4) [formula] Note: • [ADP] in Compound well represents the ADP concentration in test compound well. • [ADP] in Positive control well represents the ADP concentration in 5% DMSO well • Conversion of mP value to ADP concentration is calculated based on the formula which determined by standard curve. And mP value is measured by following the instruction provided by BellBrook Labs. (www.bellbrooklabs.com). • 6. IC50: determined with add-in software for Microsoft Excel, XLfit™ (version 2.0) from ID Business Solutions (Guildford, UK).

KG-1 = experiment: Cellular Proliferation Assay (Cell Counting Kit-8), KG-1; format: cell-based; settings: Homo sapiens; KG-1 cells, 72 hours; read-out: KG1 IC50
Method: as §1, §2, §3

Recombinant human FGFR1 = Recombinant human FGFR1 (Homo sapiens, UniProt P11362); experiment: Transcreener Kinase Assay of FGFR1; format: biochemical
Method: • 1. […] Prepare Solution • Test compounds were solved in DMSO and were diluted with assay buffer to 5 folds of final concentration keeping the DMSO concentration at 5%. Further dilution are needed to make final concentrations are at 1, 0.33, 0.11, 0.037, 0.012, 0.004, 0.0014, 0.0005 μM; (the final concentration of DMSO is 1%). • Enzyme/Substrate stock Preparation: Recombinant human FGFR1 and Poly E4Y are both diluted in assay buffer.
• 3. Enzymatic Reaction • In a 96-well plate, add 5 μL of diluted solution of test compound or control solution. (positive control: 5 μL of 5% DMSO; negative control: 5 μL of 500 mM EDTA) into desired wells respectively; • Add 10 μL of Enzyme/Substrate stock into each well; • Add 10 μL of ATP Diluents to initiate the enzyme reaction and vortex the plate immediately on a plate shaker; • For the wells to make standard curve, add 5 μL of 5% DMSO, 10 μL of assay buffer and 10 μL of ATP standard curve stock. • Incubate the plate for 45 min at 28° C. on a plate shaker in a low speed. • 4. […] Excitation wavelength: 610 nm, Emission wavelength: 670 nm. • 5. Data Analysis
as §4

FGFR3 kinase = FGFR3 kinase (Homo sapiens, UniProt P22607); experiment: Z-Lyte Kinase Assay of FGFR3; format: biochemical
Method: Example 25: Z-Lyte Kinase Assay of FGFR3
• 1. Materials and Reagents:
• 2. Reaction Steps: Plate Map
• 3. […] The final concentrations are 1, 0.33, 0.11, 0.037, 0.012, 0.004, 0.0014, 0.00046 μM, and the final concentration of DMSO is 2%. • 3) Kinase/Peptide Mixture (P/K solution): Prepare Kinase/Peptide Mixture by diluting the kinase to 0.7 μg/ml and the Z-LYTE™ Tyr 4 peptide to 4 μM in 1.33× Kinase Buffer. Mix gently by pipetting. • 4) Phospho-peptide Solution (PP solution): Add 0.4 μl of Z-LYTE™ Tyr 4 Phospho-peptide to 99.6 μl of 1.33× Kinase Buffer. • 5) ATP Solution: Prepare ATP Solution by diluting the 10 mM of ATP in 1.33× Kinase Buffer to 300 uM. • 6) Development Solution: Dilute Development Reagent B with Development Buffer as 1:128. • 4. […] Shake the plate for 30 Sec and centrifuge (1500 rpm, 1 min). • Seal the plate to protect from the light and incubate the plate for 1 hour at RT (25-30° C.). • 2) Development reaction • Add 5 μl of the Development solution to all wells. • Shake the plate for 30 Sec and centrifuge (1500 rpm, 1 min). • Seal the plate to protect from the light and incubate the plate for 1 hour at RT (25-30° C.). • 3) Stop and Read • Add 5 μl of the Stop reagent to all wells. • Shake the plate for 30 Sec and centrifuge (1500 rpm, 1 min). • Measure the value of Coumarin (Ex400 nm, Em445 nm) and fluorescein (Ex400 nm, Em520 nm), respectively. • 5. Data Analysis Emission Ratio(ER)=Coumarin Emission (445 nm)/Fluorescein Emission (520 nm) % Phosphorylation=1−[ER×C3520nm-C3445nm]/[(C1445nm-C3445nm)+ER×(C3520nm−C1520nm)] Inhibition rate (IR)=1−% Photest Cpd/% PhoC2 • 6. IC50 Value: determined with add-in software for Microsoft Excel, XLfit™ (version 2.0) from ID Business Solutions (Guildford, UK)

RT-112 = experiment: Cellular Proliferation Assay (Cell Counting Kit-8), RT-112; format: cell-based; settings: Homo sapiens; RT-112 cells, 72 hours
Method: as §1, §2, §3

Chain of Recombinant human FGFR1 (P11362 22-822): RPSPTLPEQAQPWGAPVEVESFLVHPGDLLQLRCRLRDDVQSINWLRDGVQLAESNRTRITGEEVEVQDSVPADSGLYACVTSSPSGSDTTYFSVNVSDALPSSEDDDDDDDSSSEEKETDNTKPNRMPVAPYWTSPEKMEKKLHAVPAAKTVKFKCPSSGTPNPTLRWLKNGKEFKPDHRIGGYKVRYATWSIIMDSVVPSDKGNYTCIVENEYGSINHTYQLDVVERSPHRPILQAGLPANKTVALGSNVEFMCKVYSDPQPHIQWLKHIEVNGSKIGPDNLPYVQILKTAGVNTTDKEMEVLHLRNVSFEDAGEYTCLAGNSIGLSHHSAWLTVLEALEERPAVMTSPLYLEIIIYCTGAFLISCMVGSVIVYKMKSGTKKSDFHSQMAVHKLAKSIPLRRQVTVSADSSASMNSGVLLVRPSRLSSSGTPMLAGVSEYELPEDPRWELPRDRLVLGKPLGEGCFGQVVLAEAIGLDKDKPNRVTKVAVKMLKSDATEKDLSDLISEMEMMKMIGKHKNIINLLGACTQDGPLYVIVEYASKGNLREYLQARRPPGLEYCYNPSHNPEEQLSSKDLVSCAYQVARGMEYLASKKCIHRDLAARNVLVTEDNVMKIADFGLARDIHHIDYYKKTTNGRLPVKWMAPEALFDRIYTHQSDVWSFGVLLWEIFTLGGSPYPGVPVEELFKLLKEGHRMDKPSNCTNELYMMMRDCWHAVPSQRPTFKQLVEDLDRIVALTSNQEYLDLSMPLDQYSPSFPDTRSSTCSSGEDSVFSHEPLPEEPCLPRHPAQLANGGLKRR
Chain of Recombinant human FGFR2 (P21802 22-821): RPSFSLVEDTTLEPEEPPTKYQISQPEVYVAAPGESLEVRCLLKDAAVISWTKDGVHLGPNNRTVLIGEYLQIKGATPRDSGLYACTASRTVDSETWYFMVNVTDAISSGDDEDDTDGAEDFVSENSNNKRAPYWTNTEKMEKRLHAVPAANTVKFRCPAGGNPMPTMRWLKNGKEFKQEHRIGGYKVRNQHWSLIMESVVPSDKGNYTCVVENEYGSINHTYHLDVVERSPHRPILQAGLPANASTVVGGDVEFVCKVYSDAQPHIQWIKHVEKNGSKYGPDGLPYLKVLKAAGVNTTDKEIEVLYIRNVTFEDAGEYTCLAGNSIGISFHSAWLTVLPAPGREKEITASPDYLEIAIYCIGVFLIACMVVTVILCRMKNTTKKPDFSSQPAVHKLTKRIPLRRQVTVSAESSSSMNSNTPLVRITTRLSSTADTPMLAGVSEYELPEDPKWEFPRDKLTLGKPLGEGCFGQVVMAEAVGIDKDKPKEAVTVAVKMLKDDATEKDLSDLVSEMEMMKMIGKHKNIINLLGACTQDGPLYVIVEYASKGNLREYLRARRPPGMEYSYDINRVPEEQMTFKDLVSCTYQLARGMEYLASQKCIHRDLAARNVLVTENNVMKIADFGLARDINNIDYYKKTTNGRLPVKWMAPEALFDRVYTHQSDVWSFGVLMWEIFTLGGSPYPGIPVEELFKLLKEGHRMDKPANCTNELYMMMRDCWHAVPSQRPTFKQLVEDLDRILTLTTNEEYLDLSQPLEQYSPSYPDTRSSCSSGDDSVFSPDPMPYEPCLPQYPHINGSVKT
Chain of FGFR3 kinase (P22607 23-806): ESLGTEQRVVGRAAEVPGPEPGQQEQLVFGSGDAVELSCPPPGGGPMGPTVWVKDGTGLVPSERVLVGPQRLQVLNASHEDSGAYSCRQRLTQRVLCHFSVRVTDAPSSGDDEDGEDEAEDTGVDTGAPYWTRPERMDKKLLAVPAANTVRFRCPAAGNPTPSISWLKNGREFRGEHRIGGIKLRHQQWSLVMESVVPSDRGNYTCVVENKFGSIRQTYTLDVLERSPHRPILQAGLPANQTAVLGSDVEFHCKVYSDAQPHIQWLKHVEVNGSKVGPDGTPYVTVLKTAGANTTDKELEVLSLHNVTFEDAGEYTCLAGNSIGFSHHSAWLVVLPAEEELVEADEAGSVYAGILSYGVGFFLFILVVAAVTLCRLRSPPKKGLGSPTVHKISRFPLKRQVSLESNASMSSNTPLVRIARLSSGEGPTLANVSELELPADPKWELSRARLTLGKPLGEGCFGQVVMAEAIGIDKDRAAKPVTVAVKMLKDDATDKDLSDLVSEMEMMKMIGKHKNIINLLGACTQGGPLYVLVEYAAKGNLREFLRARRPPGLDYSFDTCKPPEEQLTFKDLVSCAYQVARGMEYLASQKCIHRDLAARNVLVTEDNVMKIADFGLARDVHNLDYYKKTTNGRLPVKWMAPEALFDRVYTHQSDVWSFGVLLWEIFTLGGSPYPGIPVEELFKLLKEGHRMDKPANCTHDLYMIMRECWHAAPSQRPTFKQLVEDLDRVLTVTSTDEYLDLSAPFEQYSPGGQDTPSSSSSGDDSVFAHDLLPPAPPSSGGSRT

| IC50 (SNU-16) [nM] | IC50 (Recombinant human FGFR2; read-out: FGFR2 (FP) IC50) [nM] | IC50 (Recombinant human FGFR1; read-out: FGFR1 (FP) IC50) [nM] | IC50 (FGFR3 kinase) [nM] | IC50 (Recombinant human FGFR2; FP) [nM] | IC50 (Recombinant human FGFR1; FP) [nM] | IC50 (FGFR3 kinase; Z-lyte) [nM] | Structure (SMILES) | IC50 (KG-1) [nM] | IC50 (RT-112) [nM] |
| --- | --- | --- | --- | --- | --- | --- | --- | --- | --- |
| 16 | 8 | 12 | 11 | – | – | – | CNC(=O)c1cc(CCc2cnc(Nc3ccc(N4C[C@@H](C)N(C)[C@@H](C)C4)cc3)nc2)c(F)c(OC)c1 [Compound 171] | 8 | 43 |
| 27 | 11 | 34 | 37 | – | – | – | CNC(=O)c1cc(COc2cnc(Nc3ccc(-n4cncn4)cc3)nc2)c(F)c(OC)c1 [Compound 221] | 35 | 72 |
| – | 5 | 7 | 6 | – | – | – | CCN1CCN(c2ccc(Nc3ncc(CCc4cc(C(=O)NC)cc(OC)c4F)cn3)cc2OC)CC1 [Compound 157] | – | – |
| – | 87 | 99 | 132 | – | – | – | CCN1CC[C@H](n2cc(Nc3ncc(CCc4cc(C(=O)NC)cc(OC)c4F)cn3)cn2)C1 [Compound 191] | – | – |
| 581 | – | – | – | – | – | – | CCOc1cc(CCc2cnc(Nc3ccc(N4CCN(CC)CC4)cc3)nc2)cc(C(=O)NOC)c1 [Compound 50] | 387 | – |
| – | – | – | – | 6 | 14 | 5 | CNC(=O)c1cc(COc2cnc(Nc3ccc(N4CCN(C5CC5)CC4)c(OC)c3)nc2)c(F)c(OC)c1 [Compound 294] | – | – |
| 18 | 5 | 9 | 13 | – | – | – | CNC(=O)c1cc(CCc2cnc(Nc3cnn([C@H]4CCOC4)c3)nc2)c(F)c(OC)c1 [Compound 137] | – | – |
| – | 14 | 28 | 9 | – | – | – | CNC(=O)c1cc(COc2cnc(Nc3ccc(C4CCNCC4)nc3)nc2)c(F)c(OC)c1 [Compound 236] | – | – |

The next lines start with the molecule.

| Structure (SMILES) | IC50 (SNU-16) [nM] | IC50 (Recombinant human FGFR2; read-out: FGFR2 (FP) IC50) [nM] | IC50 (Recombinant human FGFR1; read-out: FGFR1 (FP) IC50) [nM] | IC50 (FGFR3 kinase) [nM] | IC50 (Recombinant human FGFR2; FP) [nM] | IC50 (Recombinant human FGFR1; FP) [nM] | IC50 (FGFR3 kinase; Z-lyte) [nM] | IC50 (KG-1) [nM] | IC50 (RT-112) [nM] |
| --- | --- | --- | --- | --- | --- | --- | --- | --- | --- |
| CNC(=O)c1cc(COc2cnc(Nc3ccc(CN4CCOCC4)cc3)nc2)c(F)c(OC)c1 [Compound 242] | 14 | 10 | 18 | 13 | – | – | – | 10 | 32 |
| C#Cc1ccc(Nc2ncc(OCc3cc(C(=O)NC)cc(OC)c3F)cn2)cn1 [Compound 211] | 155 | 16 | 40 | 42 | – | – | – | 103 | 78 |
| CCN(CC)CCn1cc(Nc2ncc(OCc3c(F)c(OC)cc(C(=O)NC)c3F)cn2)cn1 [Compound 251] | 41 | 23 | 25 | 24 | – | – | – | 31 | 87 |
| CNC(=O)c1cc(COc2cnc(Nc3ccc(N4C[C@@H]5CCN(C)[C@@H]5C4)c(OC)c3)nc2)c(F)c(OC)c1 [Compound 293] | – | – | – | – | 8 | 18 | 11 | – | – |
| CNC(=O)c1cc(CCc2cnc(Nc3cccc(N4C[C@@H](C)N[C@@H](C)C4)c3)nc2)cc(OC)c1 [Compound 12] | 266 | – | – | – | – | – | – | – | – |
| CNC(=O)c1cc(COc2cnc(Nc3ccc(C4CCNCC4)c(OC)c3)nc2)c(F)c(OC)c1 [Compound 258] | – | 15 | 28 | 17 | – | – | – | – | – |
| CNC(=O)c1cc(COc2cnc(Nc3cnn(C[C@H](O)CO)c3)nc2)c(F)c(OC)c1 [Compound 220] | – | 10 | 17 | 8 | – | – | – | – | – |
| CNC(=O)c1cc(CCc2cnc(Nc3cnn(CC(F)(F)F)c3)nc2)c(F)c(OC)c1 [Compound 35] | – | 10 | – | – | – | – | – | – | – |
| CNC(=O)c1cc(COc2cnc(Nc3ccc(N4CCN(C5CCCC5)CC4)c(OC)c3)nc2)c(F)c(OC)c1 [Compound 302] | – | – | – | – | 7 | 12 | 9 | – | – |
| CNC(=O)c1cc(COc2cnc(Nc3cnn(C[C@@H](O)CO)c3)nc2)c(F)c(OC)c1 [Compound 219] | – | 10 | 14 | 8 | – | – | – | – | – |
| CCn1cc(Nc2ncc(/C=C/c3cc(C(=O)NC)cc(OC)c3Br)cn2)cn1 [Compound 3] | – | 28 | 28 | 188 | – | – | – | – | – |
| CNC(=O)c1cc(COc2cnc(Nc3ccc(N4C[C@@H](C)N[C@@H](C)C4)nc3)nc2)c(F)c(OC)c1 [Compound 257] | – | – | – | – | – | – | – | 103 | – |
| CNC(=O)c1cc(CCc2cnc(Nc3cnn([C@@H]4CCOC4)c3)nc2)c(F)c(OC)c1 [Compound 136] | – | 7 | 10 | – | – | – | – | 29 | 166 |
